In PubChem BioAssay AID2060627 (Molecular Pharmacology Branch, DTP, NCI, 2025):
“And” between values parts separate entries of the source, which are not always exact repeats. Equal entries are not always repeated.

System: 156681-154-R-J1-PDC complex spheroid viability
Assay: Anticancer human tumor 156681-154-R-J1-PDC patient-derived melanoma cell line growth inhibition [CLK]
Settings: for viability, T/C: stronger effect = lower value
Source text: A high-throughput screen of multi-cell type tumor spheroids was designed to identify active combinations of […] and targeted small molecules. Complex spheroids include a stromal component modeled by human endothelial cells (HUVEC) and fibroblasts modeled by human mesenchymal stem cells (MSCs). The concentration ranges selected for each drug and investigational agent were based upon clinically achievable concentrations if the clinical Cmax of the agent was known.
Compounds. The drugs and investigational agents: cirtuvivint (SM08502; NSC835563), CC-671 (NSC850746), vemurafenib (NSC761431), tapotoclax (NSC804041), sotorasib (NSC818433), adagrasib (NSC831453), MRTX-1133 (NSC836407), BAY2416964 (NSC825713), copanlisib (NSC816437), inavolisib (NSC800729), abemaciclib (NSC768073), osimertinib (NSC779217), entinostat (NSC756642), eltanexor (KPT-8602, NSC794443), venetoclax (NSC766270), ceralasertib (NSC777638), bortezomib (NSC756655), olaparib (NSC753686), talazoparib (NSC767125), alisertib (NSC759677), peposertib (NSC802822), gemcitabine (NSC613327), 5-fluorouracil (NSC19893), SN-38 (NSC673596), oxaliplatin (NSC266046), paclitaxel (NSC125973), and doxorubicin (NSC123127), were obtained from the National Cancer Institute (NCI) Developmental Therapeutics Program Chemical Repository. The FDA-approved anticancer drug set is available from the Developmental Therapeutics Program at https://dtp.cancer.gov/organization/dscb/obtaining/available plates.htm. […] The stock solutions were prepared in dimethyl sulfoxide (DMSO, Sigma-Aldrich, St. Louis, MO, cat. D2650), except for the platinum complexes which were prepared in saline (Quality Biological, Gaithersburg, MD, cat. 114-055-101), at 800-fold the tested concentration and stored at -70 degrees C prior to their use. All drugs and investigational agents were tested over a range starting from a high concentration at or near the clinical Cmax and decreasing in half-log increments. If the clinical Cmax for an agent had not been determined, the highest concentration tested was 10 microM.
Cell Culture. All cells were maintained in an incubator at 37 degrees C and 5% CO2 with 95% humidity. The PDC lines were cultured according to standard operating procedures established by the NCI PDMR. Briefly, all PDCs were thawed and cultured in Matrigel-coated flasks prepared with a working solution of 1X Ham's F-12 nutrient mix, without supplementation (Invitrogen, Waltham, MA, cat. 11765054), 100 U/mL penicillin-streptomycin (Invitrogen, cat. 15140122), and 2.5% Matrigel (Corning Inc., Corning, NY, cat. 354248) for the first three passages. The 947758-054-R-J2-PDC line was cultured in 6B/Colon 1A media, which includes advanced DMEM/F-12 (Thermo Fisher Scientific, cat. 12634028), 10 mM HEPES (Thermo Fisher Scientific, cat. 15630080), 1X GlutaMAX supplement (Thermo Fisher Scientific, cat. 35050061), 0.1 mg/mL primocin (InvivoGen, cat. ant-pm-2), 10% defined fetal bovine serum, heat inactivated (HyClone Laboratories Inc., cat. SH30070.03HI), 1.25 mM N-Acetyl-L-cysteine (Sigma-Aldrich, cat. A9165), 10 mM nicotinamide (Sigma-Aldrich, cat. N0636), 1X B-27 supplement (Thermo Fisher Scientific, cat. 17504044), 1X N-2 supplement (Thermo Fisher Scientific, cat. 17502048), and 10 microM Y-27632 dihydrochloride (Tocris Bioscience, cat. 1254). The 876862-298-R-J1-PDC was cultured in 6E media, which includes all 6B/Colon 1A media components plus 50% L-WRN conditioned media (ATCC, cat. CRL-3276), 50 ng/mL recombinant human EGF recombinant protein (hEGF; Thermo Fisher Scientific, cat. PHG0311), 10 ng/mL recombinant human fibroblast growth factor 10 (hGFG-10; PeproTech, cat. 100-26), 1 ng/mL recombinant human fibroblast growth factor 2 (hFGF-2; PeproTech, cat. 100-18B), and 1 µM prostaglandin E2 (PGE2; Tocris, cat. 2296). The 227483-062-R1-J1-PDC line was cultured in Panc media, containing all 6E components except hFGF-2, with the addition of 500 nM SB-431542 (Selleckchem, cat. S1067) and 10 nM gastrin (Tocris, cat. 3006). […]

[1] = curve of first compound, second compound 0.0316 µM
[2] = curve of first compound, second compound 0.1 µM
[3] = curve of first compound, second compound 0.316 µM
[4] = curve of first compound, second compound 1 µM
[5] = curve of first compound, second compound 3.16 µM
[6] = curve of first compound, second compound 10 µM
[7] = second compound 0.0316 µM, first compound 0.0316 µM
[8] = second compound 0.0316 µM, first compound 0.1 µM
[9] = second compound 0.0316 µM, first compound 0.316 µM
[10] = second compound 0.0316 µM, first compound 1 µM
[11] = second compound 0.0316 µM, first compound 3.16 µM
[12] = second compound 0.0316 µM, first compound 10 µM
[13] = second compound 0.1 µM, first compound 0.0316 µM
[14] = second compound 0.1 µM, first compound 0.1 µM
[15] = second compound 0.1 µM, first compound 0.316 µM
[16] = second compound 0.1 µM, first compound 1 µM
[17] = second compound 0.1 µM, first compound 3.16 µM
[18] = second compound 0.1 µM, first compound 10 µM
[19] = second compound 0.316 µM, first compound 0.0316 µM
[20] = second compound 0.316 µM, first compound 0.1 µM
[21] = second compound 0.316 µM, first compound 0.316 µM
[22] = second compound 0.316 µM, first compound 1 µM
[23] = second compound 0.316 µM, first compound 3.16 µM
[24] = second compound 0.316 µM, first compound 10 µM
[25] = second compound 1 µM, first compound 0.0316 µM
[26] = second compound 1 µM, first compound 0.1 µM
[27] = second compound 1 µM, first compound 0.316 µM
[28] = second compound 1 µM, first compound 1 µM
[29] = second compound 1 µM, first compound 3.16 µM
[30] = second compound 1 µM, first compound 10 µM
[31] = second compound 3.16 µM, first compound 0.0316 µM
[32] = second compound 3.16 µM, first compound 0.1 µM
[33] = second compound 3.16 µM, first compound 0.316 µM
[34] = second compound 3.16 µM, first compound 1 µM
[35] = second compound 3.16 µM, first compound 3.16 µM
[36] = second compound 3.16 µM, first compound 10 µM
[37] = second compound 10 µM, first compound 0.0316 µM
[38] = second compound 10 µM, first compound 0.1 µM
[39] = second compound 10 µM, first compound 0.316 µM
[40] = second compound 10 µM, first compound 1 µM
[41] = second compound 10 µM, first compound 3.16 µM
[42] = second compound 10 µM, first compound 10 µM
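Further: spheroids exposed to the agents for seven days.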
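Wherever viability, T/C is given: 100% = DMSO vehicle control viability.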

C#Cc1c(F)ccc2cc(O)cc(-c3ncc4c(N5CC6CCC(C5)N6)nc(OCC56CCCN5CC(F)C6)nc4c3F)c12 (stereo not given)
viability, T/C (compound 0.0316 µM): 110% and 91.8%
viability, T/C (compound 0.1 µM): 86.9% and 94%
viability, T/C (compound 0.316 µM): 79.3% and 89.4%
viability, T/C (compound 1 µM): 89.2% and 83.5%
viability, T/C (compound 3.16 µM): 109% and 96.9%
viability, T/C (compound 10 µM): 99.2% and 101%
IC50 (curve of compound): > 10000 nM

CCCS(=O)(=O)Nc1ccc(F)c(C(=O)c2c[nH]c3ncc(-c4ccc(Cl)cc4)cc23)c1F + CNC(=O)c1ccc(Nc2nc(OC3CCCC3)c3c(-c4ccc5nc(C)oc5c4)c[nH]c3n2)c(OC)c1
IC50 [1]: 4960 nM
IC50 [2]: 3870 nM
IC50 [3]: 2090 nM
IC50 [4]: < 31.6 nM
IC50 [5]: < 31.6 nM
IC50 [6]: < 31.6 nM
viability, T/C [7]: 69%
viability, T/C [8]: 81.1%
viability, T/C [9]: 70.7%
viability, T/C [10]: 113%
viability, T/C [11]: 76.8%
viability, T/C [12]: 8.32%
viability, T/C [13]: 54.8%
viability, T/C [14]: 57.4%
viability, T/C [15]: 72.1%
viability, T/C [16]: 63%
viability, T/C [17]: 58.2%
viability, T/C [18]: 10.1%
viability, T/C [19]: 48%
viability, T/C [20]: 58.8%
viability, T/C [21]: 62.3%
viability, T/C [22]: 58.7%
viability, T/C [23]: 46.1%
viability, T/C [24]: 14.4%
viability, T/C [25]: 45.8%
viability, T/C [26]: 48.7%
viability, T/C [27]: 42.8%
viability, T/C [28]: 40.3%
viability, T/C [29]: 39.1%
viability, T/C [30]: 12.5%
viability, T/C [31]: 41.1%
viability, T/C [32]: 29.7%
viability, T/C [33]: 33.5%
viability, T/C [34]: 34%
viability, T/C [35]: 36.2%
viability, T/C [36]: 13.8%
viability, T/C [37]: 34.9%
viability, T/C [38]: 34.3%
viability, T/C [39]: 22.1%
viability, T/C [40]: 32.5%
viability, T/C [41]: 23.4%
viability, T/C [42]: 12.2%

CN1CCN(c2cc(C(=O)Nc3cc4cc(-c5cnn(C)c5)ccc4cn3)ccn2)CC1
viability, T/C (compound 0.0316 µM): 102% [middle of 12 runs]
viability, T/C (compound 0.1 µM): 97.7% [middle of 12 runs]
viability, T/C (compound 0.316 µM): 24.3% [middle of 12 runs]
viability, T/C (compound 1 µM): 1.19% [middle of 12 runs]
viability, T/C (compound 3.16 µM): 0.58% [middle of 11 runs]
viability, T/C (compound 10 µM): 0.34% [middle of 10 runs]
IC50 (compound alone, run of 08/14/2023): 212 nM [middle of 9 runs]

Cn1ncnc1[C@H]1c2n[nH]c(=O)c3cc(F)cc(c23)N[C@@H]1c1ccc(F)cc1
viability, T/C (compound 0.000316 µM): 87.6% and 89%
viability, T/C (compound 0.001 µM): 88.1% and 94.1%
viability, T/C (compound 0.00316 µM): 91.8% and 78.8%
viability, T/C (compound 0.01 µM): 80.4% and 83%
viability, T/C (compound 0.0316 µM): 60.7% and 65.9%
viability, T/C (compound 0.1 µM): 57% and 63.1%
IC50 (curve of compound): > 100 nM

Nc1ccn(C2OC(CO)C(O)C2(F)F)c(=O)n1 (stereo not given) + CNC(=O)c1ccc(Nc2nc(OC3CCCC3)c3c(-c4ccc5nc(C)oc5c4)c[nH]c3n2)c(OC)c1
IC50 [1]: < 31.6 nM
IC50 [2]: < 31.6 nM
IC50 [3]: < 31.6 nM
IC50 [4]: < 31.6 nM
IC50 [5]: < 31.6 nM
IC50 [6]: < 31.6 nM
viability, T/C [7]: 12.3%
viability, T/C [8]: 15.9%
viability, T/C [9]: 13.6%
viability, T/C [10]: 17.9%
viability, T/C [11]: 15.6%
viability, T/C [12]: 15.2%
viability, T/C [13]: 13.2%
viability, T/C [14]: 13.4%
viability, T/C [15]: 14.2%
viability, T/C [16]: 16.1%
viability, T/C [17]: 15.7%
viability, T/C [18]: 14%
viability, T/C [19]: 15.7%
viability, T/C [20]: 11.9%
viability, T/C [21]: 19%
viability, T/C [22]: 13%
viability, T/C [23]: 12.2%
viability, T/C [24]: 12.5%
viability, T/C [25]: 20.5%
viability, T/C [26]: 11.2%
viability, T/C [27]: 7.8%
viability, T/C [28]: 9.13%
viability, T/C [29]: 12.3%
viability, T/C [30]: 10.8%
viability, T/C [31]: 25.3%
viability, T/C [32]: 12.3%
viability, T/C [33]: 9.98%
viability, T/C [34]: 7.12%
viability, T/C [35]: 11.4%
viability, T/C [36]: 7.7%
viability, T/C [37]: 28.5%
viability, T/C [38]: 12.4%
viability, T/C [39]: 9.66%
viability, T/C [40]: 9.99%
viability, T/C [41]: 12.1%
viability, T/C [42]: 7.49%
